IC50 data for 19 molecules are collected here from US20220332700A1, “NOVEL APOPTOSIS SIGNAL-REGULATING KINASE 1 INHIBITORS” (MANKIND PHARMA LTD, priority 2019, published 2022).

One assay concerns the target T1, recombinant ASK1 (Homo sapiens, UniProt Q99683).
T1 construct: purchased Carna Biosciences
The assay can be described thus: ASK1 Biochemical Assay (HTRF KinEASE-STK S3). Conditions: ATP 100 μM; read-out: Biochemical Assay IC50. As to the method:
ASK1 biochemical assay was standardized using recombinant ASK1 (Carna Biosciences), substrate and detection reagents from Cisbio HRTF KinEASE-STK S3 kit. Enzyme concentration, ATP, biotinylated STK substrate and STK antibodies were titrated for enzyme assay. Assay was carried out in ASK1 kinase buffer, 10 mM MOPS pH-7, 10 mM Mg-acetate, 1 mM DTT, 0.025% NP40, 1.5% glycerol and 0.05% BSA. DMSO was used as vehicle control with a final concentration of 1%. A 5 ng of ASK1 enzyme was incubated with compound for 1 hour at 23° C. on a shaker at 100rpm. ATP and biotin substrate was added at a final concentration of 100 μM and 1 μM and incubated for 3 hours at 23° C. on a shaker at 100rpm. […] Delta F ratios were calculated from data obtained at excitation (337 nm) and emission wavelengths (665 nm and 620-10 nm). Substrate blank values was considered as negative control. Values from negative control was substrated from vehicle control and compound treated wells. Enzyme inhibition by compounds were calculated from vehicle controls, which represent uninterrupted enzyme's activity.

The next assay deals with T2, Human ASK1 (Homo sapiens, UniProt Q99683).
T2 construct: expressed in transfected cells; host or cells: HEK293T-AP1
T2 sequence (Q99683 1-1374): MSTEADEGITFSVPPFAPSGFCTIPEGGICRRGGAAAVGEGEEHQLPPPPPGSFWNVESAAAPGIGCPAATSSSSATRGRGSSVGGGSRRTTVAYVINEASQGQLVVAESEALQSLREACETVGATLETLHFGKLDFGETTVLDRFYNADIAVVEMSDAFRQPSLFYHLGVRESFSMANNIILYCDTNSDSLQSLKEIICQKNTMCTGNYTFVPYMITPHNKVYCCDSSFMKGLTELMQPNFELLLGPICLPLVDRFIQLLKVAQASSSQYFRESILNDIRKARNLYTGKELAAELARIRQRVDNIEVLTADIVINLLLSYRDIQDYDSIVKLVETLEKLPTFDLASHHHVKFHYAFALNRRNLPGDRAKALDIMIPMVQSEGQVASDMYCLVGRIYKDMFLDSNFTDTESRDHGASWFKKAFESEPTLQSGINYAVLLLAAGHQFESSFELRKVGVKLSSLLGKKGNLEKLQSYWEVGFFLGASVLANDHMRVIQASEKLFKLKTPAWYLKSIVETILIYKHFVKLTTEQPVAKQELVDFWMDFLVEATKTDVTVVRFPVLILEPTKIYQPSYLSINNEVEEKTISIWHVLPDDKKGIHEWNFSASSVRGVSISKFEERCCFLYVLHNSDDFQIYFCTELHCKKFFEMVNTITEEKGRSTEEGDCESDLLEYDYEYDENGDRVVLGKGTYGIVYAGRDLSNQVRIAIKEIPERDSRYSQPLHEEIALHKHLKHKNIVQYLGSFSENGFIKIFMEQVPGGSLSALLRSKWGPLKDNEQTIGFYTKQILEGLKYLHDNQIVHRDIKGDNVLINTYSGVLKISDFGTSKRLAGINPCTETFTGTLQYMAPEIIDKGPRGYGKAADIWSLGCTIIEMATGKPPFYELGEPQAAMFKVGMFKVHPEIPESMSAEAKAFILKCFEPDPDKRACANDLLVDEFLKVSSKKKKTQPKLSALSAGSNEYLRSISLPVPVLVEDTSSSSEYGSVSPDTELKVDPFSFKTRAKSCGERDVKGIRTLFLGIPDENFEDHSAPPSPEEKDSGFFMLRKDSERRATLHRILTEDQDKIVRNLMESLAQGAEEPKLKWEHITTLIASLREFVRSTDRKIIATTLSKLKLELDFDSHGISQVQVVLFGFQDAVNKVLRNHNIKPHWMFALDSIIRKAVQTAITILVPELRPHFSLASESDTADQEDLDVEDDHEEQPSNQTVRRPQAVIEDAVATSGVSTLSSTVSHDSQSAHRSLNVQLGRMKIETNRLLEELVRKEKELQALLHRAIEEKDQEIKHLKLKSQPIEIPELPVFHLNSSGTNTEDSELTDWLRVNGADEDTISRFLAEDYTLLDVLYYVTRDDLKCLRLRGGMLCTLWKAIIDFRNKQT
The assay can be described thus: ASK1 Cell Based Assay (phospho p38 read out in hASK1 transfected HEK293T-AP1 cells). Conditions: HEK293T-AP1 cells, 1 mM hydrogen peroxide, phospho p38; read-out: Cell Based Assay IC50. As to the method: HEK293T-AP1 cells were seeded at a density of 20,000 cells per well in a poly-d-lysine coated 96 well microplate. Next day, cells were transfected with hASK1-pcDNA3.1 vector using lipofectamine 3000. After 24 hours of transfection, cells were treated with compounds for 24 hours in assay medium. DMSO was used as a vehicle control with a final DMSO concentration of 0.2%. On 4th day, medium was discarded and cells were activated with 1 mM hydrogen peroxide for 1 hour in the presence of compounds. Cells were lysed for 1 hour with 1× lysis buffer on a shaker at 100 rpm. Sixteen microliters of lysate was collected into a 384 well small volume plate. Phospho p38 levels in the lysate was detected by using CisbioPhospho-p38 MAPK (Thr180/Tyr182) #64P38PEG.Four microliters of phospho p38 antibodies labelled with europium cryptate and d2 acceptor, were added to the lysate and incubated overnight. TR-FRET was measured at an excitation of 335 nm and emission was measured at 615 nm and 665 nm in BMG FLUOstar multimode reader.
Compounds were assessed for ASK1 inhibition based on phospho p38 read out. […] Background control values were susbtracted from vehicle control as well as from compound treated wells.

Structures are written as SMILES.

One may read the IC50 as the point on the concentration scale where inhibition reaches its midpoint. In the case of `CC(C)n1cnnc1-c1cccc(N2CCN(c3cccc(-n4ccnc4)c3)C2=O)n1` [Example 1002, 1-(3-(1H-imidazol-1-yl)phenyl)-3-(6-(4-isopropyl-4H-1,2,4-triazol-3-yl)pyridin-2-yl)imidazolidin-2-one], the IC50 at recombinant ASK1 is 70 nM; on Human ASK1, above 1000 nM. The corresponding values for `CC(C)n1cnnc1-c1cccc(N2CCN(c3cccc(-c4ccc(S(C)(=O)=O)cc4)c3)C2=O)n1` [Example 1007, 1-(6-(4-isopropyl-4H-1,2,4-triazol-3-yl)pyridin-2-yl)-3-(4′-(methylsulfonyl)-[1,1′-biphenyl]-3-yl)imidazolidin-2-one] are 30 nM and above 1000 nM.

As for `CC(C)n1cnnc1-c1cccc(N2CCN(c3cccc(-c4ccc(S(C)(=O)=O)nc4)c3)C2=O)n1` [Example 1010, 1-(6-(4-isopropyl-4H-1,2,4-triazol-3-yl)pyridin-2-yl)-3-(3-(6-(methylsulfonyl)pyridin-3-yl)phenyl)imidazolidin-2-one], the half-maximal inhibitory concentration (IC50) on recombinant ASK1 was 25 nM; on Human ASK1, above 1000 nM. The corresponding values for `CC(C)n1cnnc1-c1cccc(N2CCN(c3cccc(-c4ccncc4)c3)C2=O)n1` [Example 1011, 1-(6-(4-isopropyl-4H-1,2,4-triazol-3-yl)pyridin-2-yl)-3-(3-(pyridin-4-yl)phenyl)imidazolidin-2-one] are below 1000 nM and above 10000 nM.

For `CC(C)n1cnnc1-c1cccc(N2CCN(c3ccc(S(C)(=O)=O)cc3)C2=O)n1` [Example 1013, 1-(6-(4-isopropyl-4H-1,2,4-triazol-3-yl)pyridin-2-yl)-3-(4-(methylsulfonyl)phenyl)imidazolidin-2-one], the concentration for half-maximal inhibition (IC50) at recombinant ASK1 was below 100 nM; on Human ASK1, below 1000 nM.

Regarding `CC(C)n1cnnc1-c1cccc(N2CCN(c3cccc(-c4cnn(S(C)(=O)=O)c4)c3)C2=O)n1` [Example 1014, 1-(6-(4-isopropyl-4H-1,2,4-triazol-3-yl)pyridin-2-yl)-3-(3-(1-(methylsulfonyl)-1H-pyrazol-4-yl)phenyl)imidazolidin-2-one], the results for the half-maximal inhibitory concentration (IC50) at recombinant ASK1 and on Human ASK1 were above 100 nM and above 10000 nM, respectively.

In the case of `CC(C)n1cnnc1-c1cccc(N2CCN(c3ccc(S(C)(=O)=O)nc3)C2=O)n1` [Example 1018, 1-(6-(4-isopropyl-4H-1,2,4-triazol-3-yl)pyridin-2-yl)-3-(6-(methylsulfonyl)pyridin-3-yl)imidazolidin-2-one], the values for the IC50 on recombinant ASK1 and at Human ASK1 were below 100 nM and above 1000 nM, respectively.

With `COc1ccc(-c2ccc(S(C)(=O)=O)nc2)cc1N1CCN(c2cccc(-c3nncn3C(C)C)n2)C1=O` [Example 1019, 1-(6-(4-isopropyl-4H-1,2,4-triazol-3-yl)pyridin-2-yl)-3-(2-methoxy-5-(6-(methylsulfonyl)pyridin-3-yl)phenyl)imidazolidin-2-one], the IC50 is above 100 nM on recombinant ASK1 and above 10000 nM on Human ASK1. The corresponding values for `CC(C)n1cnnc1-c1cccc(N2CCN(c3ccc(S(N)(=O)=O)cc3)C2=O)n1` [Example 1020, 4-(3-(6-(4-isopropyl-4H-1,2,4-triazol-3-yl)pyridin-2-yl)-2-oxoimidazolidin-1-yl)benzenesulfonamide] are below 100 nM and above 10000 nM. Regarding `CC(C)n1cnnc1-c1cccc(N2CCN(c3ccc(S(N)(=O)=O)cc3)C2=O)n1` [Example 1023, 4-(3-(6-(4-isopropyl-4H-1,2,4-triazol-3-yl)pyridin-2-yl)-2-oxoimidazolidin-1-yl)benzenesulfonamide], the IC50 on Human ASK1 was above 1000 nM. For the molecule `CC(C)n1cnnc1-c1cccc(N2CCN(c3cnc(S(C)(=O)=O)nc3)C2=O)n1` [Example 1102, 1-(6-(4-isopropyl-4H-1,2,4-triazol-3-yl)pyridin-2-yl)-3-(2-(methylsulfonyl)pyrimidin-5-yl)imidazolidin-2-one], the IC50 at recombinant ASK1 is below 100 nM. Still for that read-out and setting: then `CC(c1ccc(N2CCOCC2)cc1)N1CCN(c2cccc(-c3nncn3C(C)C)n2)C1=O` (stereo not shown) [Example 1111, 1-(6-(4-isopropyl-4H-1,2,4-triazol-3-yl)pyridin-2-yl)-3-(1-(4-morpholinophenyl)ethyl)imidazolidin-2-one], with below 100 nM. Still for that read-out and setting: then `COCCCNC(=O)c1ccc(N2CCN(c3cccc(-c4nncn4C(C)C)n3)C2=O)cn1` [Example 1117, 5-(3-(6-(4-isopropyl-4H-1,2,4-triazol-3-yl)pyridin-2-yl)-2-oxoimidazolidin-1-yl)-N-(3-methoxypropyl)pyridine-2-carboxamide], with below 100 nM. For the molecule `CNC(=O)C1CCN(c2ccc(N3CCN(c4cccc(-c5nncn5C(C)C)n4)C3=O)cn2)C1` (stereo not shown) [Example 1119, 1-(5-(3-(6-(4-isopropyl-4H-1,2,4-triazol-3-yl)pyridin-2-yl)-2-oxoimidazolidin-1-yl)pyridin-2-yl)-N-methylpyrrolidine-3-carboxamide], the half-inhibitory concentration (IC50) on recombinant ASK1 was below 50 nM. With `CC(C)n1cnnc1-c1cccc(N2CCN(c3ccc(N4CCC(S(C)(=O)=O)CC4)nc3)C2=O)n1` [Example 1120, 1-(6-(4-isopropyl-4H-1,2,4-triazol-3-yl)pyridin-2-yl)-3-(6-(4-(methylsulfonyl)piperidin-1-yl)pyridin-3-yl)imidazolidin-2-one], at recombinant ASK1, the IC50 is below 100 nM. `CC(C)n1cnnc1-c1cccc(N2CCN(c3ccc(N4CCC(N(C)C)CC4)nc3)C2=O)n1` [Example 1121, 1-(6-(4-(dimethylamino)piperidin-1-yl)pyridin-3-yl)-3-(6-(4-isopropyl-4H-1,2,4-triazol-3-yl)pyridin-2-yl)imidazolidin-2-one]: the IC50 on recombinant ASK1 was below 100 nM. Same read-out and setting: with `CNC(=O)C1CN(c2ccc(N3CCN(c4cccc(-c5nncn5C(C)C)n4)C3=O)cn2)C1` [Example 1122, 1-(5-(3-(6-(4-isopropyl-4H-1,2,4-triazol-3-yl)pyridin-2-yl)-2-oxoimidazolidin-1-yl)pyridin-2-yl)-N-methylazetidine-3-carboxamide] the figure was below 100 nM. `CNC(=O)C1CCN(C(C)c2ccc(N3CCN(c4cccc(-c5nncn5C(C)C)n4)C3=O)cc2)CC1` (stereo not shown) [Example 1127, 1-(1-(4-(3-(6-(4-isopropyl-4H-1,2,4-triazol-3-yl)pyridin-2-yl)-2-oxoimidazolidin-1-yl)phenyl)ethyl)-N-methylpiperidine-4-carboxamide]: the half-maximal inhibitory concentration (IC50) on recombinant ASK1 is below 100 nM.

For `CC(C)n1cnnc1-c1cccc(N2CCN(c3ccnc(N4CCOCC4)c3)C2=O)n1` [Example 1132, 1-(6-(4-isopropyl-4H-1,2,4-triazol-3-yl)pyridin-2-yl)-3-(2-morpholinopyridin-4-yl)imidazolidin-2-one], the IC50 at recombinant ASK1 was above 1000 nM.
